Reference: patent publication US20250092065A1, “2-(INDAZOL-5-YL)-6-(PIPERIDIN-4-YL)-1,7-NAPHTHYRIDINE DERIVATIVES AND RELATED COMPOUNDS AS MODULATORS FOR SPLICING NUCLEIC ACIDS AND FOR THE TREATMENT OF PROLIFERATIVE DISEASES” (REMIX THERAPEUTICS INC., priority 2022, published 2025)
Where two headings read alike, the source gives them in different places.

Columns and labels:
Type in all cases: cell-based, human
HTT mRNA = assay: RT-qPCR splicing assay, HTT mRNA canonical (CJ) and alternative (AJ) junction; conditions: Homo sapiens; for AC50: HTT alternative junction mRNA, read-out: HTT AJ (increase in AJ mRNA, AC50)
How it was run: (§1)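 Splice switching quantified in compound-treated A673/K562 cells after 24 h exposure (top dose 10 uM, 3-fold steps, ≤0.25% DMSO), using CJ and AJ qPCR assays run at least in duplicate. RQ derived by 2^(−ΔΔCt), then percentage response.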

MYB = assay: HiBiT protein abundance assay, MYB (K562 HiBiT knock-in); conditions: HiBiT knock-in K562 cells, 24 hours, top dose 10 μM
How it was run: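 Luminescence readout: Nano-Glo HiBiT lytic detection after 24 h compound exposure of K562 HiBiT knock-in cells, 10000 cells/well. Dosing 10-pt, 3-fold, top 10 μM final. % response vs untreated parental K562 and DMSO controls; 4PL fit, IC50 = concentration giving 50% protein abundance.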

SMN2 mRNA = assay: RT-qPCR splicing assay, SMN2 mRNA; conditions: Homo sapiens, canonical junction qPCR panel, Table 4; read-out: SMN2 IC50 (decrease in CJ mRNA levels)
How it was run: as §1

Target C = assay: HiBiT protein abundance assay, Target C (K562 HiBiT knock-in); conditions: HiBiT knock-in K562 cells, 24 hours, top dose 10 μM
How it was run: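 K562 HiBiT knock-in cells (10000/well) were treated 24 h at 37° C with a 10-point 3-fold dilution series (top 10 μM final, ≤0.25% DMSO). HiBiT luminescence was read after lytic LgBiT detection. Percent response used unmodified K562 and DMSO-treated knock-in controls, and IC50 came from a four-parameter fit at 50% of untreated.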

[1] = HTT canonical junction mRNA, RT-qPCR, read-out: HTT CJ (decrease in CJ mRNA levels, IC50)
[2] = canonical junction qPCR panel, Table 4, read-out: HTT IC50 (decrease in CJ mRNA levels)

SMILES	AC50 (HTT mRNA; RT-qPCR)	IC50 (HTT mRNA; [1])	IC50 (HTT mRNA; [2])	IC50 (MYB)	IC50 (SMN2 mRNA)	IC50 (Target C)
Cc1nc2c(C)c(O)c(-c3ccc4nc(N5CCC(NCC6CC6)C5)ccc4n3)cc2o1 (stereo not drawn) [Compound 390, 6-(6-{3-[(cyclopropylmethyl)amino]pyrrolidin-1-yl}-1,5-naphthyridin-2-yl)-2,4-dimethyl-1,3-benzoxazol-5-ol]	< 100 nM	< 100 nM	< 100 nM	< 100 nM	< 100 nM	< 100 nM
CNC1CCN(c2ccc3nc(-c4cc(F)c5nc(C)cn5c4)ncc3n2)C1 (stereo not drawn) [Compound 393, 1-(2-{8-fluoro-2-methylimidazo[1,2-a]pyridin-6-yl}pyrido[3,2-d]pyrimidin-6-yl)-N-methylpyrrolidin-3-amine]	100 to 1000 nM	100 to 1000 nM	100 to 1000 nM	< 100 nM	< 100 nM	100 to 1000 nM
Cc1c(O)c(-c2ncc3nc(C4CCNC4)ccc3n2)cc2cn(C)nc12 (stereo not drawn) [Compound 397, 2,7-dimethyl-5-[6-(pyrrolidin-3-yl)pyrido[3,2-d]pyrimidin-2-yl]indazol-6-ol; trifluoroacetic acid]	1000 to 10000 nM	1000 to 10000 nM	1000 to 10000 nM	100 to 1000 nM	< 100 nM	1000 to 10000 nM
Cc1c(O)c(-c2ncc3nc([C@H]4CCNC4)ccc3n2)cc2cn(C)nc12 [Compound 399]	> 10000 nM	> 10000 nM	> 10000 nM	1000 to 10000 nM	100 to 1000 nM	> 10000 nM
Cn1cc2cc(-c3ncc4nc(C5CCNCC5)ccc4n3)c(O)c(C#N)c2n1 [Compound 403, 6-hydroxy-2-methyl-5-[6-(piperidin-4-yl)pyrido[3,2-d]pyrimidin-2-yl]indazole-7-carbonitrile; trifluoroacetic acid]	100 to 1000 nM	100 to 1000 nM	100 to 1000 nM	< 100 nM	< 100 nM	100 to 1000 nM
Cn1cc2cc(-c3ccc4nc(N5CCC(NC(C)(C)C)C5)ncc4n3)c(O)cc2n1 (stereo not drawn) [Compound 404, 5-{2-[3-(tert-butylamino)pyrrolidin-1-yl]pyrido[3,2-d]pyrimidin-6-yl}-2-methylindazol-6-ol]	< 100 nM	< 100 nM	< 100 nM	100 to 1000 nM	< 100 nM	< 100 nM
COc1cc(-c2ccc3nc(N4CCC(NC(C)(C)C)C4)ncc3n2)cnn1 (stereo not drawn) [Compound 405, N-tert-butyl-1-[6-(6-methoxypyridazin-4-yl)pyrido[3,2-d]pyrimidin-2-yl]pyrrolidin-3-amine]	1000 to 10000 nM	1000 to 10000 nM	1000 to 10000 nM	1000 to 10000 nM	1000 to 10000 nM	1000 to 10000 nM
CN[C@H]1CCN(c2ccc3nc(-c4cc(C#N)c5nc(C)cn5c4)ncc3n2)C1 [Compound 406, 2-methyl-6-{6-[(3S)-3-(methylamino)pyrrolidin-1-yl]pyrido[3,2-d]pyrimidin-2-yl}imidazo[1,2-a]pyridine-8-carbonitrile]	1000 to 10000 nM	100 to 1000 nM	100 to 1000 nM	100 to 1000 nM	100 to 1000 nM	1000 to 10000 nM
CN[C@@H]1CCN(c2ccc3nc(-c4cc(C#N)c5nc(C)cn5c4)ncc3n2)C1 [Compound 407, 2-methyl-6-{6-[(3R)-3-(methylamino)pyrrolidin-1-yl]pyrido[3,2-d]pyrimidin-2-yl}imidazo[1,2-a]pyridine-8-carbonitrile]	1000 to 10000 nM	100 to 1000 nM	100 to 1000 nM	100 to 1000 nM	< 100 nM	1000 to 10000 nM
Cc1nc2cc(O)c(-c3ccc4nc(N5CCNCC5)ccc4n3)cc2o1 [Compound 408, 2-methyl-6-[6-(piperazin-1-yl)-1,5-naphthyridin-2-yl]-1,3-benzoxazol-5-ol]	1000 to 10000 nM	100 to 1000 nM	100 to 1000 nM	100 to 1000 nM	< 100 nM	100 to 1000 nM
Cc1nc2cc(O)c(-c3ccc4nc(N5CCN[C@@H](C)C5)ccc4n3)cc2o1 [Compound 409]	100 to 1000 nM	100 to 1000 nM	100 to 1000 nM	100 to 1000 nM	< 100 nM	100 to 1000 nM
Cc1nc2cc(O)c(-c3ccc4nc(N5CCN6CCCC6C5)ccc4n3)cc2o1 (stereo not drawn) [Compound 410]	100 to 1000 nM	100 to 1000 nM	100 to 1000 nM	100 to 1000 nM	< 100 nM	100 to 1000 nM
Cc1nc2cc(O)c(-c3ccc4nc(N5CCNC6(CC6)C5)ccc4n3)cc2o1 [Compound 411]	> 10000 nM	1000 to 10000 nM	1000 to 10000 nM	100 to 1000 nM	< 100 nM	1000 to 10000 nM
Cc1nc2cc(O)c(-c3ccc4nc(N5CCC(NC(C)(C)C)CC5)ccc4n3)cc2o1 [Compound 412]	100 to 1000 nM	100 to 1000 nM	100 to 1000 nM	100 to 1000 nM	100 to 1000 nM	100 to 1000 nM
Cc1nc2cc(O)c(-c3ccc4nc(N5CC[C@@H](NC(C)(C)C)C5)ncc4n3)cc2o1 [Compound 413, 6-{2-[(3R)-3-(tert-butylamino)pyrrolidin-1-yl]pyrido[3,2-d]pyrimidin-6-yl}-2-methyl-1,3-benzoxazol-5-ol]	< 100 nM	< 100 nM	< 100 nM	< 100 nM	< 100 nM	< 100 nM
Cc1nc2cc(O)c(-c3ccc4nc(N5CC[C@H](NC(C)(C)C)C5)ncc4n3)cc2o1 [Compound 414, 6-{2-[(3S)-3-(tert-butylamino)pyrrolidin-1-yl]pyrido[3,2-d]pyrimidin-6-yl}-2-methyl-1,3-benzoxazol-5-ol]	100 to 1000 nM	< 100 nM	< 100 nM	1000 to 10000 nM	100 to 1000 nM	100 to 1000 nM
Cc1nc2c(C)c(O)c(-c3ccc4nc(N5CC[C@H](NC(C)C)C5)ncc4n3)cc2o1 [Compound 416, 6-{2-[(3S)-3-(isopropylamino)pyrrolidin-1-yl]pyrido[3,2-d]pyrimidin-6-yl}-2,4-dimethyl-1,3-benzoxazol-5-ol]	< 100 nM	< 100 nM	< 100 nM	< 100 nM	< 100 nM	< 100 nM
Cc1nc2cc(O)c(-c3ccc4cc(N5CC[C@@H](NC(C)(C)C)C5)ncc4n3)cc2o1 [Compound 417]	1000 to 10000 nM	100 to 1000 nM	100 to 1000 nM	< 100 nM	< 100 nM	1000 to 10000 nM
Cc1nc2cc(O)c(-c3ccc4nc(N5CCN[C@@H](C6CC6)C5)ccc4n3)cc2o1 [Compound 418]	100 to 1000 nM	100 to 1000 nM	100 to 1000 nM	100 to 1000 nM	100 to 1000 nM	100 to 1000 nM
Cc1nc2cc(O)c(-c3ccc4nc(N5C[C@@H](C)N[C@@H](C6CC6)C5)ccc4n3)cc2o1 [Compound 419]	100 to 1000 nM	100 to 1000 nM	100 to 1000 nM	100 to 1000 nM	< 100 nM	100 to 1000 nM
Cc1nc2cc(O)c(-c3ccc4nc(N5C[C@@H](C)N[C@@H](C)C5)ccc4n3)cc2o1 [Compound 420]	1000 to 10000 nM	100 to 1000 nM	100 to 1000 nM	100 to 1000 nM	< 100 nM	100 to 1000 nM
